≈ marks a conversion by molar mass, not a printed value. Counter-ions that a name gives are not always drawn. Marks after values point to notes of the source that are not given here.
Columns and labels:
[1] = Qualitative solubility determination in water at room temperature (visual, water added until dissolved); assay type: physicochemical; settings: for Solubility in water: RT, estimated by adding water to the salt until dissolved; for Dissolution in water (in words): room temperature
Experimental: The solubility of the salts in water at RT was estimated by adding water to the salt until the salt dissolved. […] From the TGMS data it was estimated whether the salts are stochiometric hydrates or not.
The solubility of a selection of salts from the salt screen was estimated at room temperature in water. To approximately 2 mg of salt, solvent aliquots were added in steps of 50 μl until the material was dissolved as observed visually by the naked eye.

[2] = Pharmacokinetic characterization after i.v. and p.o. administration to male CD-1 mice; assay type: in vivo; settings: for CL as % of mouse liver blood flow: liver blood flow 120 ml/min/kg
Experimental: IV formulations were prepared on the day of dosing. The formulations were prepared by weighing the compound into brown glass vial; on the day of dosing ClinOleic 20% intravenous fat emulsion ([…], Tamro) was added into tubes (1,5 mg/mL in 20% ClinOleic). Formulations were homogenized 5 minutes before dosing. IV formulations were administered within 5 hours after preparation.
PO formulations were prepared day before administration. The formulations were prepared by formulating the test items in PO vehicle (6 mg/ml in 0.45% (v/v) Tween 80-0.11% (w/v) sodium carboxy methylcellulose (CMC) in tap water). The suspensions were mixed with vortex and stored refrigerated (+4° C.) over night. On the day of dosing formulations were homogenized 15 minutes before dosing.
Naïve animals were used in the study (see Table 6). They were housed in individually ventilated (IVC)-cages in groups of six mice. The cages were provided with aspen bedding (4HP and PM90L, Tapvei, Estonia) and paper strands (Sizzlenest, Datesand, UK) as nesting material, and a paper pulp cabin and red polycarbonate cylinder (Datesand, UK) as cage enrichment. The temperature (22±2° C.), humidity (55±10%) and air exchange rate (75 times/h) of the IVC-cages and 12/12-h light/dark cycle (500 lux lighting on at 6 a.m., 1.5 lux lighting […].) of the animal holding room were automatically controlled and maintained. Animals were allowed to acclimatize to the site for at least five days prior to the study. Animals had ad libitum access to food (SDS diets, RM1 (E) 801002, Special Diets Services, UK) and tap water at all times, and their welfare was assured with daily observations.
Study compounds were administered via the specified route and the times of dosing and blood sampling were recorded. Within 30 min following the sampling, the blood was centrifuged for plasma separation (room temperature; 10 min; 2700 G). The plasma samples were transferred into plastic tubes, frozen and stored at −20° C. until analysis. Clinical signs and general behavior of the animals were recorded, when necessary.
The pharmacokinetic parameters were calculated using Phoenix 64 (Build 6.4.0.768) WinNonlin (version 6.4) software, using non-compartmental methods (NCA). Nominal doses were used for all animals. The terminal phase half-life (T1/2) was calculated by least-squares regression analysis of the terminal linear part of the log concentration—time curve. The area under the plasma concentration—time curve (AUC) was determined with the linear trapezoidal rule for increasing values and log trapezoidal rule for decreasing values up to the last measurable concentration (AUC0-last), and extrapolation of the terminal elimination phase to infinity was used when possible; the following criteria were used:
Minimum of 3 points (not including Cmax) used to calculate lambda (with R^2 adjusted >0.85)
T1/2 shorter than the time-span used to calculate lambda
The maximum plasma concentration (Cmax) and the time to reach Cmax (tmax) were derived directly from the plasma concentration data.

[3] = Quantitative (thermodynamic) solubility determination, shake-flask, LCMS against calibration line; assay type: physicochemical; settings: for Solubility in water: room temperature, suspensions stirred for 18 h, LCMS; for solubility at 4 h: 25 °C, thermodynamic from solid
Experimental: The thermodynamic solubility of Rabeximod free base (Form 1) was determined in 3 different USP buffers (50 mM) ranging from pH 1.2 to pH 7.4 and in water (Exp. ID: QSA21-24) by the shake-flask method at 25° C. (
Table ). Approximately 30 mg was added to approximately 1 ml of the selected buffer and the resulting suspension was equilibrated at RT for 4 hours under continuous stirring. After 15 min and after 4 h of stirring, the pH of the solution was recorded. Upon completion of the equilibration time, the suspensions were centrifuged. The solution was filtered and diluted before LCMS analysis to determine the API concentration in solution. The residue was dried under vacuum and the obtained dried solids were analyzed by XRPD. A standard LC calibration curve was prepared, and the diluted mother liquors were measured to determine the API concentration.
The solubility of the freebase (Form 1) and salts prepared by scale-up was determined in water at room temperature. Suspensions were stirred for 18 h after which the liquid phase was isolated and measured by LCMS against a calibration line. The solids were dried and measured by XRPD to determine the solid form. The lowest solubility was determined for the freebase (Form 1). The signal was lower than the calibration line and therefore the solubility was determined to be <0.005 mg/ml. […] The experimental details are described in table 5.
Table 5. Experimental details and results of the solubility determination for Rabeximod free base Form 1) as well as salt Mes1 in water and in 3 buffers with pH range 1.2-7.4. The pH of the solutions after 15 minutes and 4 hours are reported. The solubility was determined after 4h equilibration by measuring the liquid phase with LCMS against a calibration line.

[4] = Accelerated aging conditions (AAC), solid form remeasured by XRPD; assay type: physicochemical; settings: 3 days at 40° C. and 75% RH
Experimental: All solids were exposed to AAC (40° C./75% RH for 3 days) and remeasured by HT-XRPD. After that, 750 μl of a selected solvent was added. The vials were transferred to a Crystal16™ parallel crystallizer and the suspensions were stirred at 750 rpm at 50° C. for 18h after which the suspensions were subjected to centrifugation and the solids were isolated, dried under vacuum (50° C., 5 mbar, 18 h) and analyzed by HT-XRPD. The experimental conditions and results are shown below in Table 1 and Table 2 for the first and second set of experiments, respectively. The obtained XRPD patterns for the crystallinesalts made are shown in FIGS. 1 (HCl), 2 (Mao) and 3 (Mes).
Experimental conditions and results of the hydrochloride and malonic acid salt crystallization experiments. In all experiments, 750 μl of solvent was used. Counterion (Cl) abbreviations denote pure counterions whereas counterions with a number denote novel salt forms. After subjecting suspensions of API:Cl to thermocycles, the solids were isolated, dried (5 mbar, 50° C., 18 h) and analyzed by XRPD. The liquid phases were dried, and the resulting solids were analyzed by XRPD. Most solids were subjected to AAC (40° C., 75% RH, 3 days) and remeasured by XRPD.

[5] = Dynamic vapor sorption (hygroscopicity / moisture sorption); assay type: physicochemical
Experimental: Differences in hygroscopicity (moisture uptake) of the various forms of a solid material provided a measure of their relative stability at increasing relative humidity. Moisture sorption isotherms of small samples were obtained using a DVS-1 system from Surface Measurement Systems (London, UK); this instrument is suitable for use with a few milligrams of sample, with an accuracy of 0.1 μg. The relative humidity was varied during sorption-desorption-sorption (40-95-0-40% RH) at a constant temperature of 25° C. Weight equilibration per step was set at dm/dt <0.0002 mg/min for a minimum of 1 hour or maximum of 6 hours. Afterwards the sample was measured by HT-XRPD.
The hygroscopicity was classified according to the European Pharmacopoeia Hygroscopicity classification. Water uptake percentage at 25° C./80%RH (24h) is:
Change in mass <0.2%—Non-hygroscopic
Change in mass >2% & <15%—Moderately hygroscopic
Change in mass >15%—Very hygroscopic

[6] = i.v., 3.00 mg/kg, male CD1 mice
[7] = p.o., 30.0 mg/kg, male CD1 mice
[8] = male, CD-1, mouse, plasma, po, 30 mg/kg, male CD1 mice
[9] = male, CD-1, mouse, plasma, iv, 3 mg/kg, male CD1 mice

Compound | Solubility in water [1] [µg/mL] | AUC0-inf [2, 6] [ng·h/mL] | T1/2 [2, 6] [h] | Time of peak plasma concentration (tmax) [2, 6] [h] | Vss [2, 6] [L/kg] | clearance [2, 6] [mL/min/kg] | mean C0 [2, 6] [ng/mL] | mean Cmax [2, 6] [ng/mL] | CL as % of mouse liver blood flow ([2]; i.v., 3.00 mg/kg) [%] | AUC0-last [2, 7] | Time of peak plasma concentration (tmax) [2, 7] [h] | mean Cmax [2, 7] [ng/mL] | Salt form after AAC [4] | further results
Cc1cc2nc3c4cc(Cl)ccc4n(CC(=O)NCCN(C)C)c3nc2cc1C [Rabeximod HCl] | 2000 to 5700 | 2220 | 8.43 | 0.0833 | 14.2 | 22.6 | 600 | 454 | 18.8 | 13 700 h*ng/ml | 4.00 | 893 | HCl | Solubility ([3]; medium water, listed as HCI (TCS160)): 5.45 mg/mL; Solubility in water ([3]; listed as HCl1): 5500 µg/mL
Cc1cc2nc3c4cc(Cl)ccc4n(CC(=O)NCCN(C)C)c3nc2cc1C [Rabeximod Mao] | 5500 to 10200 | 1870 | 8.43 | 0.0833 | 16.9 | 26.8 | 390 | 355 | 22.3 | 11 400 h*ng/ml | 0.17 | 1140 | Mao | Solubility ([3]; medium water, listed as Mao (TCS161)): 5.26 mg/mL (≈ 12800 µM); Solubility in water ([3]; listed as Mao1): 5300 µg/mL (≈ 12900 µM)
Cc1cc2nc3c4cc(Cl)ccc4n(CC(=O)NCCN(C)C)c3nc2cc1C [Rabeximod Mes] | 13300 | 2320 | 9.80 | 0.0833 | 15.9 | 21.5 | 507 | 383 | 17.9 | 11 600 h*ng/ml | 2.00 | 707 | Mes | Water uptake ([5]; DVS, 25° C.): 12.2%; Form after DVS ([5]; sorption-desorption-sorption 40-95-0-40% RH, 25° C., HT-XRPD): Mes1; half-life [2, 8]: 8.93 h; Solubility ([3]; medium HCl, pH buffer 1.2, 4 h equilibration, listed as Mes (TCS35)): 0.014 mg/mL (≈ 34.2 µM); Solubility ([3]; medium phosphate buffer, pH buffer 6.5, 4 h equilibration, listed as Mes (TCS35)): 0.042 mg/mL (≈ 102 µM); Solubility ([3]; medium water, listed as Mes (TCS35)): 13.26 mg/mL (≈ 32300 µM); solubility at 4 h ([3]; phosphate buffer, pH 7.4, aqueous buffer, medium phosphate buffer, pH buffer 7.4, 4 h equilibration): 3 µg/mL (≈ 7.32 µM); Solubility in water ([3]; listed as Mes1): 13300 µg/mL (≈ 32400 µM)
Cc1cc2nc3c4cc(Cl)ccc4n(CC(=O)NCCN(C)C)c3nc2cc1C [Rabeximod, 9-Chloro-2,3-dimethyl-6-(N,N-dimethylaminoethylamino-2-oxoethyl)-6H-indolo-[2,3-b]quinoxaline] | – | 681 | – | – | 49.4 | 73.4 | – | 150 | 61.2 | – | 4.00 | – | – | Physical stability upon exposure to relative humidity ([5]; relative humidity values between 0-95%): remained physically stable; Hygroscopicity classification (European Pharmacopoeia) ([5]; water uptake at 25° C./80%RH): slightly hygroscopic; Dissolution in water (in words) [1]: close to insoluble in water; Dissolution in water (in words) ([1]; listed as freebase): no sign of dissolution; Tmax ([2]; male, CD-1, mouse, plasma, iv, 3 mg/kg, i.v., 3.00 mg/kg, male CD1 mice, read-out: Time of peak plasma concentration (tmax)): 5 min; C0 [2, 9]: 351 ng/mL; half-life [2, 9]: 8.99 h; AUC(0-t) [2, 8]: 8330 ng·h/mL; Cmax [2, 8]: 728 ng/mL; solubility at 4 h ([3]; HCl buffer, pH 1.2, simulated gastric fluid, medium HCl, pH buffer 1.2, 4 h equilibration): 13 µg/mL (≈ 31.7 µM); Solubility ([3]; medium phosphate buffer, pH buffer 6.5, 4 h equilibration, listed as Form 1 (SM)): 0.005* mg/ml; Solubility ([3]; medium phosphate buffer, pH buffer 7.4, 4 h equilibration, listed as Form 1 (SM)): <LOD; Solubility ([3]; medium water, listed as Form 1 (SM)): <0.005 mg/mL; Solubility in water ([3]; listed as freebase): < 5 µg/mL

— patent US11643415B1, “Rabeximod compounds” (CYXONE AB, priority 2021, dated 2023)
